Data as given in patent publication US11242337B2, “Compounds useful for treating gastrointestinal tract disorders” (Ardelyx, Inc., priority 2017, dated 2022).

Key:
[1] = molecular target: T1, NHE3 (Homo sapiens, UniProt P48764); test: Cell-based assay of NHE-3 activity (pre-incubation inhibition), human; conditions: human Preincubation
T1 construct: expressed in transfected cells
T1 sequence (P48764 26-834): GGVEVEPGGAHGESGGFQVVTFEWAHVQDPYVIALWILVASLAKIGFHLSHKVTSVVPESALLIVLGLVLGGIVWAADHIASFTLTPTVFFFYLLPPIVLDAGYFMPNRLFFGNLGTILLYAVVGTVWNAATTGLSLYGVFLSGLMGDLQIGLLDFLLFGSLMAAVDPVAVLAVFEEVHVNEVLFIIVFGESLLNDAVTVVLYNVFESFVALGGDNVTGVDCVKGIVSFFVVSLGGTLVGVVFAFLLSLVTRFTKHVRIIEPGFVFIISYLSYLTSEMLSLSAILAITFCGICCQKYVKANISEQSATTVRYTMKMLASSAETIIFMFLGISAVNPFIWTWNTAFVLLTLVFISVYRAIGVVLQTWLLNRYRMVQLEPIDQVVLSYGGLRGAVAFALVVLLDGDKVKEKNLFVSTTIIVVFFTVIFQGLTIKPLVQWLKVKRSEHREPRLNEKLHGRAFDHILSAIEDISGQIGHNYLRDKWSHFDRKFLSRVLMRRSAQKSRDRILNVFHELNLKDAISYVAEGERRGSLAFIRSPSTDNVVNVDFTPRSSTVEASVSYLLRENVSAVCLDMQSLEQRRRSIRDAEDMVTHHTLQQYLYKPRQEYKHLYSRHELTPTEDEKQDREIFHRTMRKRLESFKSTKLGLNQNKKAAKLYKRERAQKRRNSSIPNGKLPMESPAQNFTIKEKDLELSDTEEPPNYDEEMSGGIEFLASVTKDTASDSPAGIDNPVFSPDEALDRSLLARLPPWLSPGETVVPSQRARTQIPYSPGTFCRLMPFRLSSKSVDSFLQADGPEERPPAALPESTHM
T1 sequence (Q99653 2-195 partner limits assumed): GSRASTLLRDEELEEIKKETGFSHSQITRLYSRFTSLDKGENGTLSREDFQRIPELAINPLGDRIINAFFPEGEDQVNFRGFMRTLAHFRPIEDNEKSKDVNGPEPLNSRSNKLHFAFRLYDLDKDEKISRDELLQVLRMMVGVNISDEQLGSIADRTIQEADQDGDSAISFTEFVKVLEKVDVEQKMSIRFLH
In short: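 Activity read as initial rate of BCECF fluorescence ratio change per minute (ex 439/505, em 538 nm) following NH4Cl prepulse acid loading. Compound (0–30 μM) present during 10 min Na+-free acidification at room temperature; cells were PS120 fibroblasts stably co-expressing human NHE3 and NHERF2.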

[2] = molecular target: T1, NHE3; test: Cell-based assay of NHE-3 activity (persistent inhibition), human; conditions: human Persistence, 60 min incubation then washout
In short: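 Persistent inhibition: compound (0-30 μM, 60 min, RT, NaCl-HEPES pH 7.4) removed before assay. Human NHE3/NHERF2 PS120 cells were then BCECF-loaded during NH4Cl pulse (30 min, 37 °C), acidified in Na+-free buffer, and Na+ added 10 min after washout; antiport measured as initial fluorescence-ratio change per minute.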

| SMILES | % inhibition [1] | pIC50 ([1]; 0-30 μM test compound) | % inhibition [2] | pIC50 [2] | IC50 ([1]; 0-30 μM test compound) | IC50 [2] |
| --- | --- | --- | --- | --- | --- | --- |
| Cc1cc(S(=O)(=O)NCCOCCOCCNC(=O)NCCCCNC(=O)NCCOCCOCCNS(=O)(=O)c2ccc(O[C@H]3c4cc(Cl)cc(C(F)(F)F)c4C[C@@H]3N(C)C)c(C)c2)ccc1O[C@H]1c2cc(Cl)cc(C(F)(F)F)c2C[C@@H]1N(C)C [Example 19, 3-[2-(2-[2-[(4-[[(1S,2S)-6-Chloro-2-(dimethylamino)-4-(trifluoromethyl)-2,3-dihydro-1H-inden-1-yl]oxy]-3-methylbenzene)sulfonamido]ethoxy]ethoxy)ethyl]-1-[4-([[2-(2-[2-[(4-[[(1S,2S)-6-chloro-2-(dimethylamino)-4-(trifluoromethyl)-2,3-dihydro-1H-inden-1-yl]oxy]-3-methylbenzene)sulfonamido]ethoxy]ethoxy)ethyl]carbamoyl]amino)butyl]urea] | A (NHE3 < 40%) | A (NHE3 pIC50 < 6) | A (NHE3 < 40%) | A (NHE3 pIC50 < 6) | – | – |
| C[C@@H]1CN([C@H]2Cc3c(C#N)cc(Cl)cc3[C@@H]2Oc2ccc(S(=O)(=O)N[C@H]3CCN(CCOCCNC(=O)NCCCCNC(=O)NCCOCCN4CC[C@H](NS(=O)(=O)c5ccc(O[C@H]6c7cc(Cl)cc(C#N)c7C[C@@H]6N6C[C@@H](C)N[C@@H](C)C6)cc5)C4)C3)cc2)C[C@H](C)N1 [Example 136] | C (>70%) | C (NHE3 pIC50 > 7) | C (>70%) | C (NHE3 pIC50 > 7) | – | – |
| Cc1cc(S(=O)(=O)NCCOCCOCCNC(=O)NCCCCNC(=O)NCCOCCOCCNS(=O)(=O)c2cc(C)c(O[C@H]3c4cc(Cl)cc(Cl)c4C[C@@H]3N(C)C)c(F)c2)cc(F)c1O[C@H]1c2cc(Cl)cc(Cl)c2C[C@@H]1N(C)C [Example 84, 1-[2-(2-[2-[(4-[[(1S,2S)-4,6-Dichloro-2-(dimethylamino)-2,3-dihydro-1H-inden-1-yl]oxy]-3-fluoro-5-methylbenzene)sulfonamido]ethoxy]ethoxy)ethyl]-3-[4-([[2-(2-[2-[(4-[[(1S,2S)-4,6-dichloro-2-(dimethylamino)-2,3-dihydro-1H-inden-1-yl]oxy]-3-fluoro-5-methylbenzene)sulfonamido]ethoxy]ethoxy)ethyl]carbamoyl]amino)butyl]urea] | C (>70%) | C (NHE3 pIC50 > 7) | C (>70%) | C (NHE3 pIC50 > 7) | – | – |
| O=C(NCCCCNC(=O)NCCOCCOCCNS(=O)(=O)c1ccc(O[C@H]2c3cc(Cl)cc(Cl)c3C[C@@H]2N2C3CCCC2CCC3)cc1)NCCOCCOCCNS(=O)(=O)c1ccc(O[C@H]2c3cc(Cl)cc(Cl)c3C[C@@H]2N2C3CCCC2CCC3)cc1 [Example 71, 1-[2-(2-[2-[(4-[[(1S,2S)-2-[9-Azabicyclo[3.3.1]nonan-9-yl]-4,6-dichloro-2,3-dihydro-1H-inden-1-yl]oxy]benzene)sulfonamido]ethoxy]ethoxy)ethyl]-3-[4-([[2-(2-[2-[(4-[[(1S,2S)-2-[9-azabicyclo[3.3.1]nonan-9-yl]-4,6-dichloro-2,3-dihydro-1H-inden-1-yl]oxy]benzene)sulfonamido]ethoxy]ethoxy)ethyl]carbamoyl]amino)butyl]urea] | B (40-70%) | A (NHE3 pIC50 < 6) | B (40-70%) | A (NHE3 pIC50 < 6) | – | – |
| CN(C)[C@H]1Cc2c(C#N)cc(Cl)cc2[C@@H]1Oc1ccc(S(=O)(=O)NCCOCCOCCNC(=O)NCCCCNC(=O)NCCOCCOCCNS(=O)(=O)c2ccc(O[C@H]3c4cc(Cl)cc(C#N)c4C[C@@H]3N(C)C)c(F)c2)cc1F [Example 37, 3-[2-(2-[2-[(4-[[(1S,2S)-6-Chloro-4-cyano-2-(dimethylamino)-2,3-dihydro-1H-inden-1-yl]oxy]-3-fluorobenzene)sulfonamido]ethoxy]ethoxy)ethyl]-1-[4-([[2-(2-[2-[(4-[[(1S,2S)-6-chloro-4-cyano-2-(dimethylamino)-2,3-dihydro-1H-inden-1-yl]oxy]-3-fluorobenzene)sulfonamido]ethoxy]ethoxy)ethyl]carbamoyl]amino)butyl]urea] | B (40-70%) | C (NHE3 pIC50 > 7) | B (40-70%) | C (NHE3 pIC50 > 7) | – | – |

Other lines, results leading:

| % inhibition [1] | pIC50 ([1]; 0-30 μM test compound) | % inhibition [2] | pIC50 [2] | IC50 ([1]; 0-30 μM test compound) | IC50 [2] | SMILES |
| --- | --- | --- | --- | --- | --- | --- |
| A (NHE3 < 40%) | A (NHE3 pIC50 < 6) | A (NHE3 < 40%) | C (NHE3 pIC50 > 7) | – | – | CN1CCCN([C@H]2Cc3c(C#N)cc(Cl)cc3[C@@H]2Oc2ccc(S(=O)(=O)N[C@H]3CCN(CCOCCNC(=O)NCCCCNC(=O)NCCOCCN4CC[C@H](NS(=O)(=O)c5ccc(O[C@H]6c7cc(Cl)cc(C#N)c7C[C@@H]6N6CCCN(C)CC6)cc5)C4)C3)cc2)CC1 [Example 128, 4-([(1S,2S)-6-Chloro-4-cyano-2-(4-methyl-1,4-diazepan-1-yl)-2,3-dihydro-1H-inden-1-yl]oxy)-N—[(S)-1-(20-[(S)-3-([4-([(1S,2S)-6-chloro-4-cyano-2-(4-methyl-1,4-diazepan-1-yl)-2,3-dihydro-1H-inden-1-yl]oxy)phenyl]sulfonamido)pyrrolidin-1-yl]-7,14-diaxo-3,18-dioxa-6,8,13,15-tetraazaicosyl)pyrrolidin-3-yl]benzenesulfonamide] |
| C (>70%) | – | C (>70%) | – | < 100 nM | < 100 nM | N[C@@H]1CCCN([C@H]2Cc3c(Cl)cc(Cl)cc3[C@@H]2Oc2ccc(S(=O)(=O)NCCOCCOCCn3cc(CNC(=O)NCCCCNC(=O)NCc4cn(CCOCCOCCNS(=O)(=O)c5ccc(O[C@H]6c7cc(Cl)cc(Cl)c7C[C@@H]6N6CCC[C@@H](N)C6)cc5)nn4)nn3)cc2)C1 [Example 56, 1-([1-[2-(2-[2-[(4-[[(1S,2S)-2-[(3R)-3-Aminopiperidin-1-yl]-4,6-dichloro-2,3-dihydro-1H-inden-1-yl]oxy]benzene)sulfonamido]ethoxy]ethoxy)ethyl]-1H-1,2,3-triazol-4-yl]methyl)-3-(4-[[([1-[2-(2-[2-[(4-[[(1S,2S)-2-[(3R)-3-aminopiperidin-1-yl]-4,6-dichloro-2,3-dihydro-1H-inden-1-yl]oxy]benzene)sulfonamido]ethoxy]ethoxy)ethyl]-1H-1,2,3-triazol-4-yl]methyl)carbamoyl]amino]butyl)urea] |
| A (NHE3 < 40%) | C (NHE3 pIC50 > 7) | A (NHE3 < 40%) | C (NHE3 pIC50 > 7) | – | – | Cc1cc(S(=O)(=O)NCCOCCOCCNC(=O)NCCCCNC(=O)NCCOCCOCCNS(=O)(=O)c2ccc(O[C@H]3c4cc(Cl)cc(C#N)c4C[C@@H]3N3CCC[C@@H](N(C)C)C3)c(C)c2)ccc1O[C@H]1c2cc(Cl)cc(C#N)c2C[C@@H]1N1CCC[C@@H](N(C)C)C1 [Example 39] |
| C (>70%) | C (NHE3 pIC50 > 7) | C (>70%) | C (NHE3 pIC50 > 7) | – | – | C[C@H]1CN([C@H]2Cc3c(C#N)cc(Cl)cc3[C@@H]2Oc2ccc(S(=O)(=O)N[C@H]3CCN(CCOCCNC(=O)NCCCCNC(=O)NCCOCCN4CC[C@H](NS(=O)(=O)c5ccc(O[C@H]6c7cc(Cl)cc(C#N)c7C[C@@H]6N6CCN[C@@H](C)C6)cc5)C4)C3)cc2)CCN1 [Example 134, 4-([(1S,2S)-6-Chloro-4-cyano-2-[(S)-3-methylpiperazin-1-yl]-2,3-dihydro-1H-inden-1-yl]oxy)-N—[(S)-1-(20-[(S)-3-([4-([(1S,2S)-6-chloro-4-cyano-2-[(S)-3-methylpiperazin-1-yl]-2,3-dihydro-1H-inden-1-yl]oxy)phenyl]sulfonamido)pyrrolidin-1-yl]-7,14-dioxo-3,18-dioxa-6,8,13,15-tetraazaicosyl)pyrrolidin-3-yl]benzenesulfonamide; bis(trifluoroacetic acid)] |
| A (NHE3 < 40%) | A (NHE3 pIC50 < 6) | A (NHE3 < 40%) | C (NHE3 pIC50 > 7) | – | – | CN1CCCN([C@H]2Cc3c(C#N)cc(Cl)cc3[C@@H]2Oc2ccc(S(=O)(=O)N[C@@H]3CCN(CCOCCNC(=O)NCCCCNC(=O)NCCOCCN4CC[C@@H](NS(=O)(=O)c5ccc(O[C@H]6c7cc(Cl)cc(C#N)c7C[C@@H]6N6CCCN(C)CC6)cc5)C4)C3)cc2)CC1 [Example 129] |
